# Test system: castrated male Sprague Dawley rats
# Test: Ventral Prostate and Seminal Vesicle Weight In Vivo Assay; further: key: active: the non weight adjusted prostate weight was ≦40 mg or the % Inhibition prostate weight, body weight adjusted was ≧40%@2 mg/day dosage; inactive: did not meet the specified criteria defined above
# Conditions: inhibition of testosterone-enhanced prostate weight; immature castrated rats, once daily for five days, usually orally 40 mg/kg, with testosterone propionate 2 mg/kg s.c.
# Experimental: Ventral Prostate and Seminal Vesicle Weight In Vivo Assay; further: key: active: the non weight adjusted prostate weight was ≦40 mg or the % Inhibition prostate weight, body weight adjusted was ≧40%@2 mg/day dosage; inactive: did not meet the specified criteria defined above
# Immature (approximately 50 g) castrated male Sprague Dawley rats (Charles River) were treated once daily for five days with test compound (usually given orally at 40 mg/kg in a volume of 0.3 mL, in 30% cyclodextrin or 0.5% methylcellulose vehicle) and with testosterone propionate (given subcutaneously by injection at the nape of the neck at 2 mg/kg, in a volume of 0.1 mL in sesame oil). On the sixth day, the rats were euthanized by asphyxiation in carbon dioxide. Ventral prosatates and seminal vesicles were removed and their wet weights determined. Test compound activity was determined as the percent inhibition of testosterone-enhanced tissue weights, with a vehicle-treated control group set to zero percent and a testosterone alone-treated control group set to 100%.
# Representative compounds of the present invention were tested according to the procedure described, with results as listed in Table 7 below. A test compound is listed as “active” if the non weight adjusted prostate weight was ≦40 mg or the % Inhibition prostate weight, body weight adjusted was ≧40%@2 mg/day dosage. ID50's, if determined, of ≦15 mg/day also indicated an “active” compound.
row,Compound,Activity
1,"OC(c1nc2cc(Cl)c(Cl)cc2[nH]1)C(F)(F)F (racemic) [Compound 59, 1-(5,6-DiChloro-1H-benzoimidazol-2-yl-)2,2,2-trifluoro-ethanol]",active
2,"ON=C(c1nc2cc(Cl)c(Cl)cc2[nH]1)C(F)(F)F (racemic) [Compound 141, 1-(5,6-Dichloro-1H-benzoimidazol-2-yl)-2,2,2-trifluoro-ethanone Oxime]",active
3,CC(O)(Cc1cccc(F)c1)c1nc2cc(Cl)c(Cl)cc2[nH]1 (stereo not shown) [Compound 3],inactive
4,CC(O)(CO)c1nc2cc(Cl)c(Cl)cc2[nH]1 (stereo not shown) [Compound 4],active
5,Cn1c(C(C)(O)CC#N)nc2cc(Cl)c(Cl)cc21 (stereo not shown) [Compound 8],active
6,Cn1c(C(C)(O)C(F)(F)F)nc2cc(Cl)c(Cl)cc21 (stereo not shown) [Compound 9],active
7,CCOCC(C)(O)c1nc2cc(Cl)c(Cl)cc2n1C (stereo not shown) [Compound 10],inactive
8,CCn1c(C(C)(O)C(F)(F)F)nc2cc(Cl)c(Cl)cc21 (stereo not shown) [Compound 13],active
9,CCCn1c(C(C)(O)C(F)(F)F)nc2cc(Cl)c(Cl)cc21 (stereo not shown) [Compound 14],active
10,CCCCn1c(C(C)(O)C(F)(F)F)nc2cc(Cl)c(Cl)cc21 (stereo not shown) [Compound 15],active
11,CCn1c(C(C)(O)CC#N)nc2cc(Cl)c(Cl)cc21 (stereo not shown) [Compound 16],active
12,CCn1c(C(C)(O)COC)nc2cc(Cl)c(Cl)cc21 (stereo not shown) [Compound 17],inactive
13,"Cn1c(C(C)(O)CCl)nc2cc(Cl)c(Cl)cc21 (stereo not shown) [Compound 18, 1-Chloro-2-(5,6-dichloro-1-methyl-1H-benzoimidazol-2-yl)-propan-2-ol]",active
14,CC(O)(c1nc2cc(Cl)c(Cl)cc2[nH]1)C(F)(F)F (stereo not shown) [Compound 20],inactive
15,"CCSCC(C)(O)c1nc2cc(Cl)c(Cl)cc2n1C (stereo not shown) [Compound 25, 2-(5,6-Dichloro-1-methyl-1H-benzoimidazol-2-yl)-1-ethylsulfanyl-propan-2-ol]",active
16,"CC(O)(Cc1nc2cc(Cl)c(Cl)cc2[nH]1)C(F)(F)F (stereo not shown) [Compound 27, 3-(5,6-Dichloro-2-1H-benzoimidazol-2-yl)-1,1,1-trifluoro-2-methyl-propan-2-ol]",active
17,COC(C)(CC#N)c1nc2cc(Cl)c(Cl)cc2n1C (stereo not shown) [Compound 28],active
18,"CCSCC(C)(O)c1nc2cc(Cl)c(Cl)cc2n1CC (stereo not shown) [Compound 31, 2-(5,6-Dichloro-1-ethyl-1H-benzoimidazol-2-yl)-1-ethylsulfanyl-propan-2-ol]",active
19,Cn1c(CC(C)(O)C(F)(F)F)nc2cc(Cl)c(Cl)cc21 (stereo not shown) [Compound 33],active
20,CCn1c(CC(C)(O)C(F)(F)F)nc2cc(Cl)c(Cl)cc21 (stereo not shown) [Compound 37],active
21,"FC(F)(F)Cc1nc2cc(Cl)c(Cl)cc2[nH]1 [Compound 41, 5,6-Dichloro-2-(2,2,2-trifluoro-ethyl)-1H-benzoimidazole]",active
22,"CCn1c(C(C)(O)CSCC(F)(F)F)nc2cc(Cl)c(Cl)cc21 (stereo not shown) [Compound 44, 2-(5,6-Dichloro-1-ethyl-1H-benzoimidazol-2-yl)-1-(2,2,2-trifluoro-ethylsulfanyl)-propan-2-ol]",inactive
23,"Cn1c(C(C)(O)CS(=O)(=O)Cc2ccccc2)nc2cc(Cl)c(Cl)cc21 (stereo not shown) [Compound 45, 2-(5,6-Dichloro-1-methyl-1H-benzoimidazol-2-yl)-1-phenylmethanesulfonyl-propan-2-ol]",inactive
24,"CCn1c(C(C)(O)CS(=O)(=O)CC)nc2cc(Cl)c(Cl)cc21 (stereo not shown) [Compound 48, 2-(5,6-Dichloro-1-ethyl-1H-benzoimidazol-2-yl)-1-ethanesulfonyl-propan-2-ol]",active
25,"CCn1c(C(C)(O)CS(=O)(=O)CC(F)(F)F)nc2cc(Cl)c(Cl)cc21 (stereo not shown) [Compound 49, 2-(5,6-Dichloro-1-ethyl-1H-benzoimidazol-2-yl)-1-(2,2,2-trifluoro-ethanesulfonyl)-propan-2-ol]",inactive

row,Compound,Activity
1,"CC(=O)Nc1ccc(SCC(C)(O)c2nc3cc(Cl)c(Cl)cc3n2C)cc1 (stereo not shown) [Compound 56, N-{4-[2-(5,6-Dichloro-1-methyl-1H-benzoimidazol-2-yl)-2-hydroxy-propylsulfanyl]-phenyl}-acetamide]",inactive
2,"COCn1c(CC(F)(F)F)nc2cc(Cl)c(Cl)cc21 [Compound 57, 5,6-Dichloro-1-methoxymethyl-2-(2,2,2-trifluoro-ethyl)-1H-benzoimidazole]",active
3,"CSCn1c(CC(F)(F)F)nc2cc(Cl)c(Cl)cc21 [Compound 58, 5,6-Dichloro-1-methylsulfanylmethyl-2-(2,2,2-trifluoro-ethyl)-1H-benzoimidazole]",active
4,COC(c1nc2cc(Cl)c(Cl)cc2n1C)C(F)(F)F (stereo not shown) [Compound 61],active
5,CCOC(c1nc2cc(Cl)c(Cl)cc2n1CC)C(F)(F)F (stereo not shown) [Compound 62],active
6,FC(F)(F)Cc1nc2cc(Cl)c(C(F)(F)F)cc2[nH]1 [Compound 68],active
7,N#Cc1cc2nc(CC(F)(F)F)[nH]c2cc1C(F)(F)F [Compound 69],inactive
8,"Cn1c(CC(F)(F)F)nc2cc(Cl)c(Cl)cc21 [Compound 71, 5,6-Dichloro-1-methyl-2-(2,2,2-trifluoro-ethyl)-1H-benzoimidazole]",active
9,FC(F)(F)Cc1nc2cc(Cl)c(Cl)cc2n1COc1ccc(Cl)cc1 [Compound 72],inactive
10,"CS(=O)(=O)Cn1c(CC(F)(F)F)nc2cc(Cl)c(Cl)cc21 [Compound 73, 5,6-Dichloro-1-methanesulfonylmethyl-2-(2,2,2-trifluoro-ethyl)-1H-benzoimidazole]",active
11,"O=C(Cn1c(CC(F)(F)F)nc2cc(Cl)c(Cl)cc21)c1ccccc1 [Compound 74, 2-[5,6-Dichloro-2-(2,2,2-trifluoro-ethyl)-benzoimidazol-1-yl]-1-phenyl-ethanone]",inactive
12,"O=C(Cn1c(CC(F)(F)F)nc2cc(Cl)c(Cl)cc21)c1ccc(F)cc1 [Compound 75, 2-[5,6-Dichloro-2-(2,2,2-trifluoro-ethyl)-benzoimidazol-1-yl]-1-(4-fluoro-phenyl)-ethanone]",active
13,"O=C(Cn1c(CC(F)(F)F)nc2cc(Cl)c(Cl)cc21)c1ccc([N+](=O)[O-])cc1 [Compound 76, 2-[5,6-Dichloro-2-(2,2,2-trifluoro-ethyl)-benzoimidazol-1-yl]-1-(4-nitro-phenyl)-ethanone]",active
14,"COc1ccc(C(=O)Cn2c(CC(F)(F)F)nc3cc(Cl)c(Cl)cc32)c(OC)c1 [Compound 77, 2-[5,6-Dichloro-2-(2,2,2-trifluoro-ethyl)-benzoimidazol-1-yl]-1-(2,4-dimethoxy-Phenyl)-ethanone]",inactive
15,"O=C(Cn1c(CC(F)(F)F)nc2cc(Cl)c(Cl)cc21)c1ccc(Br)cc1 [Compound 79, 1-(4-Bromo-phenyl)-2-[5,6-dichloro-2-(2,2,2-trifluoro-ethyl)-benzoimidazol-1-yl]-ethanone]",inactive
16,"CCC(=O)Cn1c(CC(F)(F)F)nc2cc(Cl)c(Cl)cc21 [Compound 80, 1-[5,6-Dichloro-2-(2,2,2-trifluoro-ethyl)-benzoimidazol-1-yl]-butan-2-one]",active
17,"CCOC(=O)Cn1c(CC(F)(F)F)nc2cc(Cl)c(Cl)cc21 [Compound 81, [5,6-Dichloro-2-(2,2,2-trifluoro-ethyl)-benzoimidazol-1-yl]-acetic Acid Ethyl Ester]",inactive
18,"O[C@H](c1nc2cc(Cl)c(Cl)cc2[nH]1)C(F)(F)F [Compound 82, (−)-1-(5,6-DiChloro-1H-benzoimidazol-2-yl-)2,2,2-trifluoro-ethanol]",active
19,"O[C@@H](c1nc2cc(Cl)c(Cl)cc2[nH]1)C(F)(F)F [Compound 83, (+)-1-(5,6-DiChloro-1H-benzoimidazol-2-yl-)2,2,2-trifluoro-ethanol]",active
20,"O=C(Cn1c(CC(F)(F)F)nc2cc(Cl)c(Cl)cc21)c1cc2ccccc2o1 [Compound 84, 1-Benzofuran-2-yl-2-[5,6-dichloro-2-(2,2,2-trifluoro-ethyl)-benzoimidazol-1-yl]-ethanone]",inactive
21,"O=C(Cn1c(CC(F)(F)F)nc2cc(Cl)c(Cl)cc21)c1ccc(Cl)cc1 [Compound 85, 1-(4-Chloro-phenyl)-2-[5,6-dichloro-2-(2,2,2-trifluoro-ethyl)-benzoimidazol-1-yl]-ethanone]",inactive
22,"COc1cccc(C(=O)Cn2c(CC(F)(F)F)nc3cc(Cl)c(Cl)cc32)c1 [Compound 86, 2-[5,6-Dichloro-2-(2,2,2-trifluoro-ethyl)-benzoimidazol-1-yl]-1-(3-methoxy-phenyl)-ethanone]",inactive
23,"O=C(Cn1c(CC(F)(F)F)nc2cc(Cl)c(Cl)cc21)c1cccnc1 [Compound 87, 2-[5,6-Dichloro-2-(2,2,2-trifluoro-ethyl)-benzoimidazol-1-yl]-1-pyridin-3-yl-ethanone]",inactive
24,"O=C(Cn1c(CC(F)(F)F)nc2cc(Cl)c(Cl)cc21)c1ccc(-c2ccccn2)s1 [Compound 88, 2-[5,6-Dichloro-2-(2,2,2-trifluoro-ethyl)-benzoimidazol-1-yl]-1-(5-pyridin-2-yl-thiophen-2-yl)-ethanone]",inactive

# Source: US7566733B2, “Benzimidazole derivatives useful as selective androgen receptor modulators (sarms)” (priority 2004, dated 2009)
